The record followed here is ChEMBL document CHEMBL5042544, “Discovery of a Potent and Selective ATAD2 Bromodomain Inhibitor with Antiproliferative Activity in Breast Cancer Models” (J Med Chem, 2022).

By Kd is commonly meant the free concentration of one partner at which half of the binding sites on the other are occupied at equilibrium, for simple one-to-one binding. The IC50 is the concentration that gives 50% inhibition. Low values mean higher potency, high ones lower potency.

Experiment [1] addresses T1, Transcription initiation factor TFIID subunit 1 (Homo sapiens, UniProt P21675). Nature of the experiment: Binding affinity to human TAF1 bromodomain 2 assessed as dissociation constant by BROMOscan method.
The target of experiment [2] is Nucleosome-remodeling factor subunit BPTF (Homo sapiens, UniProt Q12830). Nature of the experiment: Binding affinity to human FALZ bromodomain assessed as residual activity at 300 nM by BROMOscan method relative to control.
Experiment [3] has as its target T1, Transcription initiation factor TFIID subunit 1. Nature of the experiment: Binding affinity to human TAF1 bromodomain 2 assessed as residual activity at 300 nM by BROMOscan method relative to control.
Experiment [4] has as its system SK-BR-3. Nature of the experiment: Antiproliferative activity against human SK-BR-3 cells expressing ATAD2 assessed as inhibition of colony formation at 0.01 to 10 uM measured after 14 to 21 days by AlamarBlue staining based colony formation assay. The class given is functional, cell-based. The conditions noted are these: dose 0.01-10 µM, time 14-21 day. (The colour change of resazurin is a common sign of viable cells or microbes.)

For experiment [5], the target named is Bromodomain and PHD finger-containing protein 3 (Homo sapiens) (UniProt Q9ULD4). Nature of the experiment: Binding affinity to human […] bromodomain assessed as residual activity at 300 nM by BROMOscan method relative to control.
Experiment [6] concerns the target T2, Bromodomain-containing protein 3 (Homo sapiens, UniProt Q15059). Nature of the experiment: Binding affinity to human BRD3 bromodomain 2 assessed as residual activity at 300 nM by BROMOscan method relative to control.
The target of experiment [7] is SWI/SNF-related matrix-associated actin-dependent regulator of chromatin subfamily A member 2 (Homo sapiens, UniProt P51531). Nature of the experiment: Binding affinity to human SMARCA2 bromodomain assessed as dissociation constant by BROMOscan method.
The target of experiment [8] is T3, Histone acetyltransferase p300 (Homo sapiens, UniProt Q09472). Nature of the experiment: Binding affinity to human EP300 bromodomain assessed as residual activity at 300 nM by BROMOscan method relative to control.
T3 sequence (Q09472 whole entry): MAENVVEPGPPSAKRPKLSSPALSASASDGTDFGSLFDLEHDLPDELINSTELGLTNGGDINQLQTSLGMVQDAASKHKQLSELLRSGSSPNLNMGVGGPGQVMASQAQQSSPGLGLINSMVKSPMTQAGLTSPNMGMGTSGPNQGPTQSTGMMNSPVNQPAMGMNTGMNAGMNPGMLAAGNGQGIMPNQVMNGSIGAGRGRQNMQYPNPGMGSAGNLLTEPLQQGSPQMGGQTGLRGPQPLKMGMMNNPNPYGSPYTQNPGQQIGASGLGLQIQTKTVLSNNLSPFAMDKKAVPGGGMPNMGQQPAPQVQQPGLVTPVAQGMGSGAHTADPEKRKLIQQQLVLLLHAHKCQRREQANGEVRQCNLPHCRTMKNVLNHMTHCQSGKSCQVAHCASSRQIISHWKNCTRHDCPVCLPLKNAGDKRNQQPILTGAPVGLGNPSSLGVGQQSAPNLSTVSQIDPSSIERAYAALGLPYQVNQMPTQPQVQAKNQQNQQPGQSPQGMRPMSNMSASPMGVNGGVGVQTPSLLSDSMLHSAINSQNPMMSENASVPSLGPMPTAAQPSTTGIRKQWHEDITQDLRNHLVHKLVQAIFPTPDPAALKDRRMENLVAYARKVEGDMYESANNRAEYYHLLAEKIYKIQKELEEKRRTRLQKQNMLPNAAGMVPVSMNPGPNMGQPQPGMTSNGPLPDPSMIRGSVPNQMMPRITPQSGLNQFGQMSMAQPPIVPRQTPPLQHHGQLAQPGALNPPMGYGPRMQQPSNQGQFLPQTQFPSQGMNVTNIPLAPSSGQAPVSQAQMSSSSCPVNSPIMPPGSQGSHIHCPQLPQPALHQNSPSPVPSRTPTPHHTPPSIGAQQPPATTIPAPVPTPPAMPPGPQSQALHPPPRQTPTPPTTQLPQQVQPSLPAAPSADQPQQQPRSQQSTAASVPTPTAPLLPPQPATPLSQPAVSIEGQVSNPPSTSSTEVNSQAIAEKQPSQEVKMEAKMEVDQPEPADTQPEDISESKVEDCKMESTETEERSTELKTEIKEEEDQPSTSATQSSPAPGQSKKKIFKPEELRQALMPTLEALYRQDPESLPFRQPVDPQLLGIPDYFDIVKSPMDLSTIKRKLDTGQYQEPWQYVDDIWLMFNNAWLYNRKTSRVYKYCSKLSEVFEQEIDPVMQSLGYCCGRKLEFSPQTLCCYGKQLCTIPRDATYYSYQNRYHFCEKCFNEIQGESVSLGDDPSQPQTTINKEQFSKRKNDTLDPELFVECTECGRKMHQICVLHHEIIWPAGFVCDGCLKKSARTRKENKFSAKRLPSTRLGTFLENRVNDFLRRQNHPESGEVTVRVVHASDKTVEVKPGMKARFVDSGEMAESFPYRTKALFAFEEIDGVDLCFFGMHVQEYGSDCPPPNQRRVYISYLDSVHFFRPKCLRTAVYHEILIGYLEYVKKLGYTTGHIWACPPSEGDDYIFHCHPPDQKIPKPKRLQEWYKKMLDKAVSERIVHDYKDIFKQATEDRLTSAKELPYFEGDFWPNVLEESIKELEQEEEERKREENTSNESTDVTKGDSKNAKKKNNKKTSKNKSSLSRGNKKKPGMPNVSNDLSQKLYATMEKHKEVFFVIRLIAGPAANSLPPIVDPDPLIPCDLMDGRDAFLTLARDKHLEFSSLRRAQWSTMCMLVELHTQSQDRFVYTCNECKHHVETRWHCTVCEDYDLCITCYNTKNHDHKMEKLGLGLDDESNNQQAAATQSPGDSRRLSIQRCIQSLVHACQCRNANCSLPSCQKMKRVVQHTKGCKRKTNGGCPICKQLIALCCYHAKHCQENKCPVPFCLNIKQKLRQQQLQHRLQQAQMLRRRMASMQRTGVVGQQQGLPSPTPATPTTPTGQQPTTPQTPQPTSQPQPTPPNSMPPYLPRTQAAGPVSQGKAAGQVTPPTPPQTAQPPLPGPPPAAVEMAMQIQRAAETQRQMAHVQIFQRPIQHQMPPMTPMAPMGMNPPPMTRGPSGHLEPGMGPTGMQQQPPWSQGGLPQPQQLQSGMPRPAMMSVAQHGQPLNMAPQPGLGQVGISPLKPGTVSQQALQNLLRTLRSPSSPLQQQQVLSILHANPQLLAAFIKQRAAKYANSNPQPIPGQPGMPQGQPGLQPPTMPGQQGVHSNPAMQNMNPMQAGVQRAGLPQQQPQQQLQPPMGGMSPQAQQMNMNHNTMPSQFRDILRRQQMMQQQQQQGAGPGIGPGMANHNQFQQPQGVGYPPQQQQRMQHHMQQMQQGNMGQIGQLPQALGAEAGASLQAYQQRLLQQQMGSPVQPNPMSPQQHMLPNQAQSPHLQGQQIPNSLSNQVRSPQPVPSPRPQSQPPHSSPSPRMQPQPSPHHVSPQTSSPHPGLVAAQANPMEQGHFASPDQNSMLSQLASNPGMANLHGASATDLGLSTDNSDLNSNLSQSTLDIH
Experiment [9] deals with Protein polybromo-1 (Homo sapiens, UniProt Q86U86). Nature of the experiment: Binding affinity to human PBRM1 bromodomain 2 assessed as residual activity at 300 nM by BROMOscan method relative to control.
Experiment [10] deals with SK-BR-3. Nature of the experiment: Antiproliferative activity against human SK-BR-3 cells expressing BRD2 assessed as inhibition of colony formation at 0.01 to 10 uM measured after 14 to 21 days by alamarBlue based colony formation assay. The conditions noted are these: dose 0.01-10 µM, time 14-21 day. The class given is functional, cell-based.
Experiment [11] addresses Bromodomain and WD repeat-containing protein 1 (Homo sapiens, UniProt Q9NSI6). Nature of the experiment: Binding affinity to human WDR9 bromodomain 2 assessed as residual activity at 300 nM by BROMOscan method relative to control.
Experiment [12] is filed under the species Homo sapiens. Nature of the experiment: Binding affinity to human ATAD2A assessed as residual activity at 300 nM by BROMOscan method relative to control.
The target of experiment [13] is T3, Histone acetyltransferase p300. Nature of the experiment: Binding affinity to human EP300 bromodomain assessed as dissociation constant by BROMOscan method.
The target of experiment [14] is T4, ATPase family AAA domain-containing protein 2 (Homo sapiens, UniProt Q6PL18).
T4 sequence (Q6PL18 whole entry): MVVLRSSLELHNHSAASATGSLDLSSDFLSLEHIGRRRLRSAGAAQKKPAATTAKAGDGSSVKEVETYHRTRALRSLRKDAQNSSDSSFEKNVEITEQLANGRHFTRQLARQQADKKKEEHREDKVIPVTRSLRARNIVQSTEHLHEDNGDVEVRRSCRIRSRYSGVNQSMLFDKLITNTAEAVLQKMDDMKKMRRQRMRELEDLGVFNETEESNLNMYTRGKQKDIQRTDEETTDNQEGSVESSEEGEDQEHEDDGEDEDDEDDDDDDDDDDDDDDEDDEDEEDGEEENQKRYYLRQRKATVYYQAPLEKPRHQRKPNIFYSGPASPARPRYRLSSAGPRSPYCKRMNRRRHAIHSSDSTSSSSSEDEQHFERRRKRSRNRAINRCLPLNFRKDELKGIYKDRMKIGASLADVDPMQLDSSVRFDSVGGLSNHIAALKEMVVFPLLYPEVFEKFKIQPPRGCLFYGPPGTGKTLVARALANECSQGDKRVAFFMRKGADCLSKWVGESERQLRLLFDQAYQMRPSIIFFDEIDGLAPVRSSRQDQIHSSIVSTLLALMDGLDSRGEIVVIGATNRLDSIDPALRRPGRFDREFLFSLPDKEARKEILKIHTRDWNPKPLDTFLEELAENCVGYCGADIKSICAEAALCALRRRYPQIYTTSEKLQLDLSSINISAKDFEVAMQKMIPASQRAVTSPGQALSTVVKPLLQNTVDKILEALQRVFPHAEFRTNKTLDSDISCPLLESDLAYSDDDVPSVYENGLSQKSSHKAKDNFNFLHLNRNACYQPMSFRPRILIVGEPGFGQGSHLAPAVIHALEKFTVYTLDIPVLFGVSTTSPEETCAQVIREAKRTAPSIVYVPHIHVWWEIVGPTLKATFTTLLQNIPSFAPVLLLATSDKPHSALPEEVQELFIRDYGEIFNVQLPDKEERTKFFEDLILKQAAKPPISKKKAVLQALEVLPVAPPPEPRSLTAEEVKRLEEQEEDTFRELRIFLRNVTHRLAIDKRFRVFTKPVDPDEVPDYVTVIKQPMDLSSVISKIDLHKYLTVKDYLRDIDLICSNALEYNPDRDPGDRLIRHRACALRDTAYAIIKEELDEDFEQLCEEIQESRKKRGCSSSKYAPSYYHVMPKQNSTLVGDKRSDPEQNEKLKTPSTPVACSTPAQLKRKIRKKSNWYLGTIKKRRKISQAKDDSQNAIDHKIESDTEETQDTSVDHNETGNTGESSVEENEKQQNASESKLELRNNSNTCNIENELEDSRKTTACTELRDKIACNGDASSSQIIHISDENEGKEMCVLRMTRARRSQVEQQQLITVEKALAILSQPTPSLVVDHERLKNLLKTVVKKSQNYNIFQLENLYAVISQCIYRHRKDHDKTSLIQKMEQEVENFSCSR
Nature of the experiment: Inhibition of GST-ATAD2 BD (951 to 1132 residues) (unknown origin) expressed in Escherichia coli BL21 (DE3) and biotinylated tetra-acetylated histone H4 peptides as substrate by TR-FRET artifact assay. For orientation: Time-resolved FRET reads energy transfer from a long-lived donor to a nearby acceptor.

Experiment [15] concerns the target T2, Bromodomain-containing protein 3. Nature of the experiment: Binding affinity to human BRD3 bromodomain 2 assessed as dissociation constant by BROMOscan method.
Experiment [16] concerns the target Bromodomain-containing protein 7 (Homo sapiens) (UniProt Q9NPI1). Nature of the experiment: Binding affinity to human BRD7 bromodomain assessed as residual activity at 300 nM by BROMOscan method relative to control.
Experiment [17] concerns MDA-MB-468. Nature of the experiment: Antiproliferative activity against human MDA-MB-468 cells expressing ATAD2 assessed as inhibition of colony formation at 0.01 to 10 uM measured after 14 to 21 days by AlamarBlue staining based colony formation assay. The class given is functional, cell-based. Conditions: dose 0.01-10 µM, time 14-21 day.
Experiment [18] has as its target Peregrin (Homo sapiens) (UniProt P55201). Nature of the experiment: Binding affinity to human […] bromodomain assessed as residual activity at 300 nM by BROMOscan method relative to control.
The target in experiment [19] is Bromodomain-containing protein 9 (Homo sapiens, UniProt Q9H8M2). Nature of the experiment: Binding affinity to human BRD9 bromodomain by BROMOscan method.
Bromodomain-containing protein 9, sequence (Q9H8M2 whole entry): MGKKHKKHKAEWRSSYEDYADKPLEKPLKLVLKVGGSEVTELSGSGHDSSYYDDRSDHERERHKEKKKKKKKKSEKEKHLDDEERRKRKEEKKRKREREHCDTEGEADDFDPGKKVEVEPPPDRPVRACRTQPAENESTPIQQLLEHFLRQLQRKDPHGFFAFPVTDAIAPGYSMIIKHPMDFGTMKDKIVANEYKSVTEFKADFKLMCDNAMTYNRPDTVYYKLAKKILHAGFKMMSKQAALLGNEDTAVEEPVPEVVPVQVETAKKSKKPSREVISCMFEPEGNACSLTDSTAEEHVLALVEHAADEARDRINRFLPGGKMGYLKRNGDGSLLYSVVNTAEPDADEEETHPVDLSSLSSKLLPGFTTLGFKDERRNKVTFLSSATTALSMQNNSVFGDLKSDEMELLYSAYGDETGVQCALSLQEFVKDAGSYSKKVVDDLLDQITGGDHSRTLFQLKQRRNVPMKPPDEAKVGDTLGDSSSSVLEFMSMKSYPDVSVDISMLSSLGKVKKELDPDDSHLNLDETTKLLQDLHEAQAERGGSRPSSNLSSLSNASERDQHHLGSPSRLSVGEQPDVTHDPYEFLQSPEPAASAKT

Each structure is given as a SMILES string. Activity calls are given as the source filed them. The calls are words filed in the database; no cut-off is given here. A value given as a limit tells only on which side of the number the result lay.

T1 sequence (P21675 whole entry): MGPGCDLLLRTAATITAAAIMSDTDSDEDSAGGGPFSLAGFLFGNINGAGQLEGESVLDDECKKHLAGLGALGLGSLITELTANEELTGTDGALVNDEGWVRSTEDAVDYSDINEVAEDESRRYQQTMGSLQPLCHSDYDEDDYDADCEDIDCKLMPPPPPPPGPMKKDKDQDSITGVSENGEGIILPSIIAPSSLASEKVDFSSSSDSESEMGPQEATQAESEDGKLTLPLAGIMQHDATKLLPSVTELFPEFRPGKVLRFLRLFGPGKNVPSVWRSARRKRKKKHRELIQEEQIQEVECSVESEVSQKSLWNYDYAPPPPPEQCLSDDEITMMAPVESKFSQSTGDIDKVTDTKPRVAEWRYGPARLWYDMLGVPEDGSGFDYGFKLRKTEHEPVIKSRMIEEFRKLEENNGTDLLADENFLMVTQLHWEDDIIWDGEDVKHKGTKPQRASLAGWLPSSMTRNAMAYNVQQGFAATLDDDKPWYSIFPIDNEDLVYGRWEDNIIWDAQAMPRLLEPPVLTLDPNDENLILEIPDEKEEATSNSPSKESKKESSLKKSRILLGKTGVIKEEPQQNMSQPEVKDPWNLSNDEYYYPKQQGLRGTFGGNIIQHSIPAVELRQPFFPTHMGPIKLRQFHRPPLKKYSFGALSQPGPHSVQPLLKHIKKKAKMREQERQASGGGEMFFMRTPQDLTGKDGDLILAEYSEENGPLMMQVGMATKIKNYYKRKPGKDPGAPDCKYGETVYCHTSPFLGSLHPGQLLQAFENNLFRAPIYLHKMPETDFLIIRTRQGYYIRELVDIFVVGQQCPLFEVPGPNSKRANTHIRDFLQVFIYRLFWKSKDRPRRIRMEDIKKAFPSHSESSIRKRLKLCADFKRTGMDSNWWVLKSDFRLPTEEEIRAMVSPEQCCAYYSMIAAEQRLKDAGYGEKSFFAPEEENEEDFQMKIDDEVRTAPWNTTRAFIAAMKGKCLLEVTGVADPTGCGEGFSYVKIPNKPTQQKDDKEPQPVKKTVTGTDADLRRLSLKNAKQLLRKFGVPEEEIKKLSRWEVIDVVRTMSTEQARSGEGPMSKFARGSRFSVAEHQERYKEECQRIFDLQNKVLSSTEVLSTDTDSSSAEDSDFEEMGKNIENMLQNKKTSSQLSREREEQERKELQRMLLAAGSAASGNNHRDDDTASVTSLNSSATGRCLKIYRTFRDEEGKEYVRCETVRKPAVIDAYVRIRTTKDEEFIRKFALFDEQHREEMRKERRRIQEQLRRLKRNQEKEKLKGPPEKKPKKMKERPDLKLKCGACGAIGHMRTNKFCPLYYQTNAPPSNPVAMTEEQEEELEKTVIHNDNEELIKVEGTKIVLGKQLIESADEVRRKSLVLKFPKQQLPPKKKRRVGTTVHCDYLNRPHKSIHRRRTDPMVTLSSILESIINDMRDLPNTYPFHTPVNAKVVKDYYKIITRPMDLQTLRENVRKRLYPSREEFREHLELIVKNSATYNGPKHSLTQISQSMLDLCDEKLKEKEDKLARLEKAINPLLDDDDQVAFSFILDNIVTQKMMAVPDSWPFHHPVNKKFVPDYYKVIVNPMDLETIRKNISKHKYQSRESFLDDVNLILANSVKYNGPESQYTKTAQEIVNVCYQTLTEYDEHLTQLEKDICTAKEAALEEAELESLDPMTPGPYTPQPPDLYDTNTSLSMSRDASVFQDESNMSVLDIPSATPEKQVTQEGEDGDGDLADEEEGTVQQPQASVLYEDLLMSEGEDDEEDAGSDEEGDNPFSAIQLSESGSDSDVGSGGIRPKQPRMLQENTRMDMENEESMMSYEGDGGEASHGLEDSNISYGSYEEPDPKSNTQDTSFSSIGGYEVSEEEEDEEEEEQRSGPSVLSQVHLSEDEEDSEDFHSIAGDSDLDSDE

As for `Cc1nnc2c(NC3CCN(CC(C)(C)F)CC3)cc(C(=O)N3[C@@H]4c5ccccc5C[C@H]3C(=O)N[C@@H]4C(C)C)nn12`, the dissociation constant Kd is 0.158 µM in experiment [1]; greater than 3.16 µM in experiment [7]; greater than 3.16 µM in experiment [13]; 0.2 µM in experiment [15]; greater than 0.316 µM in experiment [19]. For the same compound, the Activity in experiment [2] was 53%; in experiment [3], 44%; in experiment [4] it was “Dose-Dependent Effect”; in experiment [5] it was 66%; in experiment [6], 56%; in experiment [8], 41%. For the same compound, the Activity in [9] was 80%; in experiment [11] it was 53%; in experiment [12], 0%; in experiment [16], 73%; in experiment [17], “Dose-Dependent Effect”; in [18] it was 79%. The outcome in experiment [10] was inactive. In [14], this compound showed an IC50 greater than 25.1 µM.
